Tested on: 991263-137-R1-J2-PDC complex spheroid viability
Test: Anticancer human tumor 991263-137-R1-J2-PDC patient-derived colon adenocarcinoma cell line growth inhibition [POLQ]
Settings: for IC50: curve of first compound; for viability, T/C: stronger effect = lower value
Outline: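 Patient-derived tumour cells were co-cultured with HUVEC and mesenchymal stem cells as multicellular spheroids at 37 °C. They were treated with POLQ inhibitors (novobiocin, ART-558, RP6685) alone or combined with other agents. Top concentrations were at or near clinical Cmax (otherwise 10 microM; SN-38 at 1 microM), decreasing in half-log steps.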

[1] = second compound 0.0316 µM, first compound 0.00316 µM
[2] = second compound 0.0316 µM, first compound 0.01 µM
[3] = second compound 0.0316 µM, first compound 0.0316 µM
[4] = second compound 0.0316 µM, first compound 0.1 µM
[5] = second compound 0.1 µM, first compound 0.00316 µM
[6] = second compound 0.1 µM, first compound 0.01 µM
[7] = second compound 0.1 µM, first compound 0.0316 µM
[8] = second compound 0.1 µM, first compound 0.1 µM
[9] = second compound 0.316 µM, first compound 0.00316 µM
[10] = second compound 0.316 µM, first compound 0.01 µM
[11] = second compound 0.316 µM, first compound 0.0316 µM
[12] = second compound 0.316 µM, first compound 0.1 µM
[13] = second compound 1 µM, first compound 0.00316 µM
[14] = second compound 1 µM, first compound 0.01 µM
[15] = second compound 1 µM, first compound 0.0316 µM
[16] = second compound 1 µM, first compound 0.1 µM
[17] = second compound 3.16 µM, first compound 0.00316 µM
[18] = second compound 3.16 µM, first compound 0.01 µM
[19] = second compound 3.16 µM, first compound 0.0316 µM
[20] = second compound 3.16 µM, first compound 0.1 µM
[21] = second compound 10 µM, first compound 0.00316 µM
[22] = second compound 10 µM, first compound 0.01 µM
[23] = second compound 10 µM, first compound 0.0316 µM
[24] = second compound 10 µM, first compound 0.1 µM
[25] = second compound 0.0316 µM, first compound 0.316 µM
[26] = second compound 0.0316 µM, first compound 1 µM
[27] = second compound 0.1 µM, first compound 0.316 µM
[28] = second compound 0.1 µM, first compound 1 µM
[29] = second compound 0.316 µM, first compound 0.316 µM
[30] = second compound 0.316 µM, first compound 1 µM
[31] = second compound 1 µM, first compound 0.316 µM
[32] = second compound 1 µM, first compound 1 µM
[33] = second compound 3.16 µM, first compound 0.316 µM
[34] = second compound 3.16 µM, first compound 1 µM
[35] = second compound 10 µM, first compound 0.316 µM
[36] = second compound 10 µM, first compound 1 µM
[37] = second compound 0.0316 µM, first compound 3.16 µM
[38] = second compound 0.0316 µM, first compound 10 µM
[39] = second compound 0.1 µM, first compound 3.16 µM
[40] = second compound 0.1 µM, first compound 10 µM
[41] = second compound 0.316 µM, first compound 3.16 µM
[42] = second compound 0.316 µM, first compound 10 µM
[43] = second compound 1 µM, first compound 3.16 µM
[44] = second compound 1 µM, first compound 10 µM
[45] = second compound 3.16 µM, first compound 3.16 µM
[46] = second compound 3.16 µM, first compound 10 µM
[47] = second compound 10 µM, first compound 3.16 µM
[48] = second compound 10 µM, first compound 10 µM
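Further: spheroids exposed to compounds for 7 days before readout.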
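Wherever viability, T/C is given: 100% = DMSO vehicle control viability.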

## CC[C@@]1(O)C(=O)OCc2c1cc1n(c2=O)Cc2cc3c(CN(C)C)c(O)ccc3nc2-1 + COC1C(OC(N)=O)C(O)C(Oc2ccc3c(O)c(NC(=O)c4ccc(O)c(CC=C(C)C)c4)c(=O)oc3c2C)OC1(C)C
Second compound 0.0316 µM
  IC50: > 100 nM
Second compound 0.1 µM
  IC50: > 100 nM
Second compound 0.316 µM
  IC50: > 100 nM
Second compound 1 µM
  IC50: > 100 nM
Second compound 3.16 µM
  IC50: > 100 nM
Second compound 10 µM
  IC50: > 100 nM
Second compound 0.0316 µM, first compound 0.000316 µM
  viability, T/C: 103%
Second compound 0.0316 µM, first compound 0.001 µM
  viability, T/C: 103%
[1]
  viability, T/C: 106%
[2]
  viability, T/C: 103%
[3]
  viability, T/C: 100%
[4]
  viability, T/C: 87.3%
Second compound 0.1 µM, first compound 0.000316 µM
  viability, T/C: 105%
Second compound 0.1 µM, first compound 0.001 µM
  viability, T/C: 125%
[5]
  viability, T/C: 98.3%
[6]
  viability, T/C: 79.6%
[7]
  viability, T/C: 86.4%
[8]
  viability, T/C: 71.4%
Second compound 0.316 µM, first compound 0.000316 µM
  viability, T/C: 110%
Second compound 0.316 µM, first compound 0.001 µM
  viability, T/C: 110%
[9]
  viability, T/C: 107%
[10]
  viability, T/C: 100%
[11]
  viability, T/C: 102%
[12]
  viability, T/C: 84.5%
Second compound 1 µM, first compound 0.000316 µM
  viability, T/C: 82.4%
Second compound 1 µM, first compound 0.001 µM
  viability, T/C: 106%
[13]
  viability, T/C: 97.7%
[14]
  viability, T/C: 93.2%
[15]
  viability, T/C: 75.7%
[16]
  viability, T/C: 86.4%
Second compound 3.16 µM, first compound 0.000316 µM
  viability, T/C: 93.9%
Second compound 3.16 µM, first compound 0.001 µM
  viability, T/C: 107%
[17]
  viability, T/C: 104%
[18]
  viability, T/C: 112%
[19]
  viability, T/C: 98.6%
[20]
  viability, T/C: 87.7%
Second compound 10 µM, first compound 0.000316 µM
  viability, T/C: 92.8%
Second compound 10 µM, first compound 0.001 µM
  viability, T/C: 114%
[21]
  viability, T/C: 99.1%
[22]
  viability, T/C: 95.3%
[23]
  viability, T/C: 110%
[24]
  viability, T/C: 88.5%

## CCc1c2c(nc3ccc(O)cc13)-c1cc3c(c(=O)n1C2)COC(=O)[C@]3(O)CC + COC1C(OC(N)=O)C(O)C(Oc2ccc3c(O)c(NC(=O)c4ccc(O)c(CC=C(C)C)c4)c(=O)oc3c2C)OC1(C)C
Second compound 0.0316 µM
  IC50: 69.1 nM
Second compound 0.1 µM
  IC50: 55.1 nM
Second compound 0.316 µM
  IC50: 59.2 nM
Second compound 1 µM
  IC50: 67.5 nM
Second compound 3.16 µM
  IC50: 99.9 nM
Second compound 10 µM
  IC50: 59.2 nM
[1]
  viability, T/C: 102%
[2]
  viability, T/C: 81%
[3]
  viability, T/C: 54.5%
[4]
  viability, T/C: 45.3%
[25]
  viability, T/C: 41.4%
[26]
  viability, T/C: 25.9%
[5]
  viability, T/C: 106%
[6]
  viability, T/C: 88.4%
[7]
  viability, T/C: 52.9%
[8]
  viability, T/C: 44%
[27]
  viability, T/C: 29.1%
[28]
  viability, T/C: 20.2%
[9]
  viability, T/C: 83.3%
[10]
  viability, T/C: 74.9%
[11]
  viability, T/C: 47.8%
[12]
  viability, T/C: 48.9%
[29]
  viability, T/C: 34.9%
[30]
  viability, T/C: 20.9%
[13]
  viability, T/C: 92.2%
[14]
  viability, T/C: 81%
[15]
  viability, T/C: 62.2%
[16]
  viability, T/C: 41.9%
[31]
  viability, T/C: 33.6%
[32]
  viability, T/C: 22.6%
[17]
  viability, T/C: 84.1%
[18]
  viability, T/C: 66.6%
[19]
  viability, T/C: 61.1%
[20]
  viability, T/C: 54.3%
[33]
  viability, T/C: 37.1%
[34]
  viability, T/C: 19.2%
[21]
  viability, T/C: 104%
[22]
  viability, T/C: 82.3%
[23]
  viability, T/C: 53.3%
[24]
  viability, T/C: 46.1%
[35]
  viability, T/C: 30.6%
[36]
  viability, T/C: 19.9%

## Nc1ccn(C2OC(CO)C(O)C2(F)F)c(=O)n1 (stereo not drawn) + COC1C(OC(N)=O)C(O)C(Oc2ccc3c(O)c(NC(=O)c4ccc(O)c(CC=C(C)C)c4)c(=O)oc3c2C)OC1(C)C
Second compound 0.0316 µM
  IC50: 553 nM
Second compound 0.1 µM
  IC50: 898 nM
Second compound 0.316 µM
  IC50: 1920 nM
Second compound 1 µM
  IC50: 860 nM
Second compound 3.16 µM
  IC50: 736 nM
Second compound 10 µM
  IC50: 1110 nM
[3]
  viability, T/C: 77.8%
[4]
  viability, T/C: 56%
[25]
  viability, T/C: 56.4%
[26]
  viability, T/C: 46.9%
[37]
  viability, T/C: 47.6%
[38]
  viability, T/C: 36.6%
[7]
  viability, T/C: 67.6%
[8]
  viability, T/C: 60.5%
[27]
  viability, T/C: 57.5%
[28]
  viability, T/C: 46.7%
[39]
  viability, T/C: 45.5%
[40]
  viability, T/C: 42%
[11]
  viability, T/C: 65.1%
[12]
  viability, T/C: 70.8%
[29]
  viability, T/C: 62%
[30]
  viability, T/C: 54.1%
[41]
  viability, T/C: 46.9%
[42]
  viability, T/C: 33%
[15]
  viability, T/C: 72.8%
[16]
  viability, T/C: 69.9%
[31]
  viability, T/C: 53.7%
[32]
  viability, T/C: 48.5%
[43]
  viability, T/C: 43.4%
[44]
  viability, T/C: 35.5%
[19]
  viability, T/C: 72.1%
[20]
  viability, T/C: 63.5%
[33]
  viability, T/C: 58%
[34]
  viability, T/C: 48%
[45]
  viability, T/C: 39.1%
[46]
  viability, T/C: 37.9%
[23]
  viability, T/C: 69.4%
[24]
  viability, T/C: 75.7%
[35]
  viability, T/C: 59.7%
[36]
  viability, T/C: 53.3%
[47]
  viability, T/C: 38.2%
[48]
  viability, T/C: 34.2%

## O=c1[nH]cc(F)c(=O)[nH]1 + COC1C(OC(N)=O)C(O)C(Oc2ccc3c(O)c(NC(=O)c4ccc(O)c(CC=C(C)C)c4)c(=O)oc3c2C)OC1(C)C
Second compound 0.0316 µM
  IC50: > 10000 nM
Second compound 0.1 µM
  IC50: > 10000 nM
Second compound 0.316 µM
  IC50: > 10000 nM
Second compound 1 µM
  IC50: > 10000 nM
Second compound 3.16 µM
  IC50: > 10000 nM
Second compound 10 µM
  IC50: > 10000 nM
[3]
  viability, T/C: 94%
[4]
  viability, T/C: 101%
[25]
  viability, T/C: 91%
[26]
  viability, T/C: 94%
[37]
  viability, T/C: 87%
[38]
  viability, T/C: 79.3%
[7]
  viability, T/C: 103%
[8]
  viability, T/C: 104%
[27]
  viability, T/C: 108%
[28]
  viability, T/C: 82.1%
[39]
  viability, T/C: 95.1%
[40]
  viability, T/C: 62.5%
[11]
  viability, T/C: 87.4%
[12]
  viability, T/C: 118%
[29]
  viability, T/C: 76.6%
[30]
  viability, T/C: 92.6%
[41]
  viability, T/C: 88.1%
[42]
  viability, T/C: 84.4%
[15]
  viability, T/C: 99%
[16]
  viability, T/C: 97.8%
[31]
  viability, T/C: 101%
[32]
  viability, T/C: 82.6%
[43]
  viability, T/C: 77.3%
[44]
  viability, T/C: 69.4%
[19]
  viability, T/C: 65%
[20]
  viability, T/C: 86.3%
[33]
  viability, T/C: 97.9%
[34]
  viability, T/C: 92.3%
[45]
  viability, T/C: 82.3%
[46]
  viability, T/C: 74.9%
[23]
  viability, T/C: 90.6%
[24]
  viability, T/C: 107%
[35]
  viability, T/C: 87.3%
[36]
  viability, T/C: 83.7%
[47]
  viability, T/C: 90.3%
[48]
  viability, T/C: 78.3%
